We go through two molecules from US20090048285A1, “Pyrrolopyridines Useful in the Treatment of Inflammation” (priority 2005, published 2009).

The assay deals with T1, mPGES-1 (Homo sapiens, UniProt O14684).
T1 construct: made in house; host or cells: E. coli (membrane fraction)
T1 sequence (O14684 1-152): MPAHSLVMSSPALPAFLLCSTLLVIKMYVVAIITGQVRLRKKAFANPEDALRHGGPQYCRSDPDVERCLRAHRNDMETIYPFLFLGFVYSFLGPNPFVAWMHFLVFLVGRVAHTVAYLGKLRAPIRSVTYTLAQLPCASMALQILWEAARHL
The assay can be described thus: mPGES-1 assay: conversion of PGH2 to PGE2, HPLC analysis. It counts as biochemical. To be noted: mPGES-1 expressed in E. coli; 25 min preincubation with inhibitor, 60 s with PGH2, room temperature. As for the experimental part:
In the assay in PGES-1 catalyses the reaction where the substrate PGH2 is converted to PGE2. mPGES-1 is expressed in E. coli and the membrane fraction is dissolved in 20 mM NaPi-buffer pH 8.0 and stored at −80° C. In the assay mPGES-1 is dissolved in 0.1M KPi-buffer pH 7.35 with 2.5 mM glutathione. The stop solution consists of H2O/MeCN (7/3), containing FeCl2 (25 mM) and HCl (0.15 M). The assay is performed at room temperature in 96-well plates. Analysis of the amount of PGE2 is performed with reversed phase HPLC (Waters 2795 equipped with a 3.9×150 mm C18 column). The mobile phase consists of H2O/MeCN (7/3), containing TFA (0.056%), and absorbance is measured at 195 nm with a Waters 2487 LTV-detector.
The following is added chronologically to each well: • 1. 100 μL mPGES-1 in KPi-buffer with glutathione. Total protein concentration: 0.02 mg/mL. • 2. 1 μL inhibitor in DMSO. Incubation of the plate at room temperature for 25 minutes. • 3. 4 μL of a 0.25 mM PGH2 solution. Incubation of the plate at room temperature for 60 seconds. • 4. 100 μL stop solution. • 180 μL per sample is analyzed with HPLC.

In the case of `CC(C)Oc1ccc(-n2c(C(=O)O)cc3cc(Oc4cccc(C(F)(F)F)c4)ncc32)cc1` [Example 1, 1-(4-Isopropoxyphenyl)-5-(3-trifluoromethylphenoxy)pyrrolo[2,3-c]pyridine-2-carboxylic Acid], the concentration for half-maximal inhibition (IC50) (usually the concentration needed to halve the response being measured) was 2300 nM.
The molecule `CC(C)Oc1ccc(-n2c(C(=O)O)cc3c(-c4ccc(C(F)(F)F)cc4)nc(Cl)cc32)cc1` [Example 3, 6-Chloro-1-(4-isopropoxyphenyl)-4-(4-trifluoromethylphenyl)pyrrolo[3,2-c]pyridine-2-carboxylic acid] displayed a half-inhibitory concentration (IC50) of 750 nM.
